From the NIST ThermoML archive (doi:10.1016/j.fluid.2017.05.024)
Numbers after ± are expanded uncertainties. Each block holds one compound with its values, some of them ahead of it.

What was measured:
[1] = xn = mol fraction of the nth substance listed; details: 298.15 K, 100 kPa, Liquid, Vibrating tube method
[2] = 298.15 K, Liquid

SMILES: CCCC[N+](CCCC)(CCCC)CCCC.[Br-] [tetrabutylammonium bromide] + OCCO
mass density ([1]; x1 = 0.2): 1069.1 ± 1.2 kg/m3

SMILES: CCCC[N+](CCCC)(CCCC)CCCC.[Br-] [tetrabutylammonium bromide] + OCC(O)CO
mass density ([1]; x1 = 0.2): 1137.1 ± 1.3 kg/m3

SMILES: OCCO [1,2-ethanediol] + CCCC[N+](CCCC)(CCCC)CCCC.[Br-]
mass density ([1]; x2 = 0): 1112.1 ± 1.4 kg/m3

SMILES: c1c[nH]cn1 [1H-imidazole] + CCCC[N+](CCCC)(CCCC)CCCC.[Br-]
mass density ([1]; x2 = 0.333): 1092.2 ± 1 kg/m3

SMILES: OCCO [1,2-ethanediol]
mass density ([2]; 100 kPa, Vibrating tube method): 1112.1 ± 1.4 kg/m3

mass density ([2]; 101.33 kPa, Pycnometric method): 1262 ± 2 kg/m3
SMILES: OCC(O)CO [glycerol]
